The values below come from US20070254303A1, “Methods for assessing the efficacy of treatment with a glucocorticoid” (Praecis Pharmaceuticals Incorporated, priority 2006, published 2007).

Some results are limits rather than exact numbers.

In assay [1] the target is T1, MetAP-2 in white blood cells (Rattus norvegicus, UniProt P38062).
T1 construct: white blood cells from animals of each study group were pooled and cell lysates were prepared; from tissue; host or cells: white blood cells of female Lewis rats (PG-PS arthritis model)
T1 sequence (P38062 whole entry): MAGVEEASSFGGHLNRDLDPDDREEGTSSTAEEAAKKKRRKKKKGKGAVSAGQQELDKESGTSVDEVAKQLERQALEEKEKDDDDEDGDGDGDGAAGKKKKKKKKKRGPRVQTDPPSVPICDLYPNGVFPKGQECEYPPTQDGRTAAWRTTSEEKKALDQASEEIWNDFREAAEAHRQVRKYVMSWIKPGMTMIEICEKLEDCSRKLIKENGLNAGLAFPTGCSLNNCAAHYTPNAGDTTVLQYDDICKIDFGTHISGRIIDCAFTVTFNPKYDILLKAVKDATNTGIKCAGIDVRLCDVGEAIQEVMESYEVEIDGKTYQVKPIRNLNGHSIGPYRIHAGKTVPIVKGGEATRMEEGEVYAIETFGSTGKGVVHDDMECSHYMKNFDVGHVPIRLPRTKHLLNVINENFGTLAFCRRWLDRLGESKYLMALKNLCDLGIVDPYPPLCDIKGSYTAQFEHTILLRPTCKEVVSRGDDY
The assay can be described thus: MetAP-2 pharmacodynamic assay (ELISA of uninhibited MetAP-2 in white blood cell lysates of treated rats). It is filed as in vivo. Conditions: po, PG-PS arthritic rats, every other day, relative to the vehicle-treated group, read-out: MetAP-2 in white blood cells inhibited; for inhibition at 1 mg/kg: 1 mg/kg orally, pooled wbc after conclusion of study. How it is done:
After completion of the study, wbc from rats of different groups that had been treated with vehicle (p.o., qod), dex (1 mg/kg, p.o., qod) or MetAP-2 inhibitor (1, 5, or 10 mg/kg, p.o., qod) were pooled, lysed, and the amount of MetAP-2 inhibited in wbc lysates was determined by the MetAP-2 pharmacodynamic assay. All values are expressed as percentage of the amount of MetAP-2 inhibited compared with vehicle-treated rats. The amount of uninhibited MetAP-2 (=100%) in vehicle-treated rats in this assay corresponded to 41 ng MetAP-2 per mg wbc protein. The detection limit was 0.47 ng MetAP-2 per mg wbc protein. Columns: 10 rats per group, except for naive rats treated with vehicle (n=4).
(§1) Rat model of Peptidoglycan-Polysaccharide (PG-PS) induced arthritis. Female Lewis rats (109-130 g) were received from Charles River Laboratories. Food and water were available ad libitum. PG-PS (25 mg/kg) was injected intraperitoneally on day 1 and responding animals were randomized into treatment groups on day 14. Vehicle (11% HPCD in PBS), dexamethasone and a methionine aminopeptidase 2 inhibitor (1, 5, and 10 mg/kg) were administered orally, every other day. Paw swelling was monitored using a plethysmometer (Stoelting Co., Woodale, Ill.) according to instrument specifications. The volumes of the two hind paws were measured and averaged on day 1, 4, 6, 8, 10, 13, 15, 17, 20, 22, 23, 27, 29 and 31. Ten animals were assigned to each group except the vehicle group and animals which received no PG-PS, but 10 mg/kg of the methionine aminopeptidase 2 inhibitor (n=4). The methionine aminopeptidase 2 inhibitor comprising the structure structure (1-Carbamoyl-2-methyl-propyl)-carbamic acid-(3R, 4S, 5S, 6R )-5-methoxy-4-[(2R, 3R)-2-methyl-3-(3-methyl-but-2-enyl)-oxiranyl]-1-oxa-spiro[2.5]oct-6-yl ester was used in the present studies.
MetAP-2 pharmacodynamic assay. The MetAP-2 assay is an ELISA assay that measures the amount of uninhibited MetAP-2 in cells or tissues which has not been derivitized by prior treatment with a methionine aminopeptidase 2 inhibitor and/or a glucocorticoid. The assay was performed as described in, for example, Bernier, S. G., et al. (2004) Proc. Natl. Acad. Sci. USA 101: 10768-10773 and Bernier, S. G., et al. (2005) J. Cell. Biochem. 95:1191-1203, the entire contents of each of which are incorporated herein by reference. Briefly, white blood cells from animals of each study group were pooled and cell lysates were prepared as described in, for example, Bernier, S. G., et al. (2004) Proc. Natl. Acad. Sci. USA 101: 10768-10773 and Bernier, S. G., et al. (2005) J. Cell. Biochem. 95:1191-1203. […] After 1 hour, the plates were washed, and the immobilized biotinylated MetAP-2-inhibitor complex was then detected with an anti-MetAP-2 antibody, CM33 (0.5 μg/ml). […]

Assay [2] has as its system Peptidoglycan-Polysaccharide (PG-PS) induced arthritis. The assay can be described thus: Rat model of PG-PS induced arthritis, paw swelling of the hind limbs. Format: in vivo. The settings on record: 1, 5 and 10 mg/kg orally, every other day, day 15 to day 31; compared to vehicle-treated animals. How it is done: as §1

Turning to `C[C@@H]1C[C@H]2[C@@H]3CCC4=CC(=O)C=C[C@]4(C)[C@@]3(F)[C@@H](O)C[C@]2(C)[C@@]1(O)C(=O)CO` [dexamethasone, reference compound], the inhibition at 1 mg/kg in assay [1] was not below 90%.
With `CO[C@@H]1[C@H](OC(=O)N[C@@H](C(N)=O)C(C)C)CC[C@]2(CO2)[C@H]1[C@@]1(C)O[C@@H]1CC=C(C)C` [methionine aminopeptidase 2 inhibitor, (1-Carbamoyl-2-methyl-propyl)-carbamic acid-(3R, 4S, 5S, 6R )-5-methoxy-4-[(2R, 3R)-2-methyl-3-(3-methyl-but-2-enyl)-oxiranyl]-1-oxa-spiro[2.5]oct-6-yl ester], the inhibition at 1 mg/kg in assay [1] was not below 60%. Besides, the inhibition at 5 mg/kg in assay [1] (5 mg/kg orally) was not below 95%. The inhibition at 10 mg/kg in assay [1] (10 mg/kg orally) is not below 95%. For the same molecule, the “joint swelling and inflammation, measured by paw swelling of the hind limbs” value in assay [2] is “significant amelioration of joint swelling and inflammation”.
